Measurements from ChEMBL document CHEMBL4402597, “Truncated (N)-Methanocarba Nucleosides as Partial Agonists at Mouse and Human A3 Adenosine Receptors: Affinity Enhancement by N6-(2-Phenylethyl) Substitution” (J Med Chem, 2020).
pEC50, pKi: −log10 of the molar value.

Tests used:
Adenosine receptor A3 [1] = molecular target: T1, Adenosine receptor A3 (Homo sapiens, UniProt P0DMS8); assay: biochemical
T1 sequence (P0DMS8 whole entry): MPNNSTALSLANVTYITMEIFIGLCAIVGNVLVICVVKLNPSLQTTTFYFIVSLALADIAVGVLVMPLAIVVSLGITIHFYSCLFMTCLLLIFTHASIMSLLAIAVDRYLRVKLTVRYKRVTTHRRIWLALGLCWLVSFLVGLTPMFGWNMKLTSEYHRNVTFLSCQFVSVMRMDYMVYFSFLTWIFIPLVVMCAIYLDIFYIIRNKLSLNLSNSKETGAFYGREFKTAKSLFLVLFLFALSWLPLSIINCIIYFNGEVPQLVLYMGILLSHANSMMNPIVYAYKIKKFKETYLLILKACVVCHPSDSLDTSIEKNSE

Adenosine receptor A3 [2] = molecular target: T2, Adenosine receptor A3 (Mus musculus, UniProt Q61618); assay: biochemical
T2 sequence (Q61618 whole entry): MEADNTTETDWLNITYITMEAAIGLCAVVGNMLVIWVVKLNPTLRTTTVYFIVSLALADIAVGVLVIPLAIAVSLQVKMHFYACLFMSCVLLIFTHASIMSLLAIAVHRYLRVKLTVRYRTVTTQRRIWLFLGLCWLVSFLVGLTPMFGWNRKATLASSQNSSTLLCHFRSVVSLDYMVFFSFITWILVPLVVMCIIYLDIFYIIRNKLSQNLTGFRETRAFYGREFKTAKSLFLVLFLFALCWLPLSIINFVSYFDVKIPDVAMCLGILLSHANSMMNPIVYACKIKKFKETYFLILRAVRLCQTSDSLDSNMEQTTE

Adenosine receptor A2a [3] = molecular target: T3, Adenosine receptor A2a (Homo sapiens, UniProt P29274); assay: Displacement of [3H]CGS21680 from recombinant human A2AAR expressed in HEK293 cell membranes at 10 uM measured after 60 mins by liquid scintillation counting method relative to control
T3 sequence (P29274 whole entry): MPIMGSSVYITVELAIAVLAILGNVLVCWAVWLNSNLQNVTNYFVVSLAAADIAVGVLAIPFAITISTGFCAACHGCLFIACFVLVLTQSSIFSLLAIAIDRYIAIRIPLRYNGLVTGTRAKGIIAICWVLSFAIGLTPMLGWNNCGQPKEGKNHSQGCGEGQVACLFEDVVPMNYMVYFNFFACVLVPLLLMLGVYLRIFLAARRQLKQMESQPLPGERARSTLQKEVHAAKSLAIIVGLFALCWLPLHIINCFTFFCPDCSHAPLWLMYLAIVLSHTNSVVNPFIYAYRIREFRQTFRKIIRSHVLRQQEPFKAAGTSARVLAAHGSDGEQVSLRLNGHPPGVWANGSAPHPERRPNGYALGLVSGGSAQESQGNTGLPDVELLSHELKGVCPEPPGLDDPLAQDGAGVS

Adenosine receptor A1 [4] = molecular target: T4, Adenosine receptor A1 (Mus musculus, UniProt Q60612); assay: Displacement of [3H]R-PIA from recombinant mouse A1AR expressed in HEK293 cell membranes measured after 60 mins by liquid scintillation counting method
T4 sequence (Q60612 whole entry): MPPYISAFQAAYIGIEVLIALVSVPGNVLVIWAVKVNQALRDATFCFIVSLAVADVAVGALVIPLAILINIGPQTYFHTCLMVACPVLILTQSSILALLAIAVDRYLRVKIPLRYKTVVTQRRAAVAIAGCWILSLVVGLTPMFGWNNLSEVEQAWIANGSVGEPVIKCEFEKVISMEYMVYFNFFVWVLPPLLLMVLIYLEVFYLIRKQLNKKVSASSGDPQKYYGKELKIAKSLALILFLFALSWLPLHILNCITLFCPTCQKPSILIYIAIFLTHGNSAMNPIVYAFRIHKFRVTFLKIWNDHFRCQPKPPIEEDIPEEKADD

[5] = molecular target: T5, Adenosine receptor A1 (Homo sapiens) (UniProt P30542); assay: Displacement of [3H]R-PIA from recombinant human A1AR expressed in HEK293 cell membranes at 10 uM measured after 60 mins by liquid scintillation counting method relative to control
T5 sequence (whole entry): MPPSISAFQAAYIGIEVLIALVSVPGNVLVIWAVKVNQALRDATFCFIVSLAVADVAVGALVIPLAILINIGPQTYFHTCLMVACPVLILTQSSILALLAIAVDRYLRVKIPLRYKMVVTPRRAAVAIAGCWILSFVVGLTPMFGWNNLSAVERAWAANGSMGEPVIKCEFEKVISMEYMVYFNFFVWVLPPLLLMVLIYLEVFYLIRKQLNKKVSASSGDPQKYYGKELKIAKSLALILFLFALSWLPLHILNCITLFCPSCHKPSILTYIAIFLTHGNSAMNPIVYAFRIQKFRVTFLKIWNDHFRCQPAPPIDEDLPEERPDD

Adenosine receptor A3 [6] = molecular target: T1, Adenosine receptor A3; assay: Partial agonist activity at recombinant human A3AR expressed in HEK293 cells assessed as inhibition of forskolin-stimulated cAMP accumulation measured after 30 mins in presence of A2BAR blocker PSB-603 by Glo-sensor assay; assay type: functional, cell-based
[7] = molecular target: T6, Adenosine receptor A3 (Homo sapiens) (UniProt P0DMS8); assay: Partial agonist activity at recombinant human A3AR expressed in HEK293 cells assessed as inhibition of forskolin-stimulated cAMP accumulation at 10 uM measured after 30 mins in presence of A2BAR blocker PSB-603 by Glo-sensor assay relative to Cl-IB-MECA; assay type: functional, cell-based
T6 sequence (whole entry): T1 sequence (P0DMS8 whole entry)

[8] = molecular target: T6, Adenosine receptor A3 (Homo sapiens); assay: Partial agonist activity at recombinant human A3AR expressed in HEK293 cells assessed as inhibition of forskolin-stimulated cAMP accumulation by measuring residual cAMP level measured after 30 mins in presence of A2BAR blocker PSB-603 by Glo-sensor assay relative to control; assay type: functional, cell-based
[9] = molecular target: T7, Adenosine receptor A3 (Mus musculus) (UniProt Q61618); assay: Partial agonist activity at recombinant mouse A3AR expressed in HEK293 cell membranes assessed as stimulation of [35S]GTPgammaS binding measured after 2 hrs in presence of A2BAR blocker PSB-603 by liquid scintillation counting analysis relative to adenosine-5'-Nethyluronamide; assay type: functional
T7 sequence (whole entry): T2 sequence (Q61618 whole entry)

Adenosine receptor A1 [10] = molecular target: T8, Adenosine receptor A1 (Homo sapiens, UniProt P30542); assay: Displacement of [3H]R-PIA from recombinant human A1AR expressed in HEK293 cell membranes measured after 60 mins by liquid scintillation counting method
T8 sequence (P30542 whole entry): T5 sequence (whole entry)

Translocator protein = Translocator protein (Homo sapiens, UniProt P30536); assay: Inhibition of TSPO (unknown origin)
Translocator protein, sequence (P30536 whole entry): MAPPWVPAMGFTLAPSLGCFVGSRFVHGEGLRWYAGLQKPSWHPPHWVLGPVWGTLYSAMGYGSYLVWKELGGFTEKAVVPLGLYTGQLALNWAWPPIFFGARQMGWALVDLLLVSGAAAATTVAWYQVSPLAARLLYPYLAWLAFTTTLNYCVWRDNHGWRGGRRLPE

Adenosine receptor A2a [11] = molecular target: T3, Adenosine receptor A2a; assay: Displacement of [3H]CGS21680 from recombinant human A2AAR expressed in HEK293 cell membranes measured after 60 mins by liquid scintillation counting method

Structure (SMILES)	pKi (Adenosine receptor A3 [1])	pKi (Adenosine receptor A3 [2])	inhibition (Adenosine receptor A2a [3])	inhibition [5]	other results
Oc1ccc(CCNc2nc(C#Cc3ccccc3)nc3c2ncn3[C@H]2[C@H](O)[C@H](O)[C@@H]3C[C@@H]32)cc1O	7.31	7.40	27%	28%	pKi (Adenosine receptor A1 [4]): 5.85
COc1cc(CCNc2nc(I)nc3c2ncn3[C@H]2[C@H](O)[C@H](O)[C@@H]3C[C@@H]32)ccc1O	8.04	7.03	49%	50%	
O[C@@H]1[C@H](O)[C@@H]2C[C@@H]2[C@H]1n1cnc2c(NCCc3ccccc3)nc(C#Cc3ccc(Cl)s3)nc21	8.09	6.00	46%	10%	pEC50 (Adenosine receptor A3 [6]): 5.62; Emax [7]: 80%; Emax [8]: 37.6%
COc1cc(CCNc2nc(C#Cc3cccnc3)nc3c2ncn3[C@H]2[C@H](O)[C@H](O)[C@@H]3C[C@@H]32)ccc1O	8.17	6.81	39%	36%	
O[C@@H]1[C@H](O)[C@@H]2C[C@@H]2[C@H]1n1cnc2c(NCCc3ccccc3)nc(C#Cc3ccccc3Cl)nc21		6.01			
CCNC(=O)[C@H]1O[C@@H](n2cnc3c(N)ncnc32)[C@H](O)[C@@H]1O					Emax [9]: 100%
O[C@@H]1[C@H](O)[C@@H]2C[C@@H]2[C@H]1n1cnc2c(NCCc3cccc(F)c3)nc(C#Cc3ccc(F)s3)nc21	7.25	6.39	48%		pKi (Adenosine receptor A1 [10]): 5.64
COc1ccc(CCNc2nc(C#Cc3ccccc3)nc3c2ncn3[C@H]2[C@H](O)[C@H](O)[C@@H]3C[C@@H]32)cc1O	8.16	6.91	27%	49%	
COc1ccc(CCNc2nc(C#Cc3ccccc3)nc3c2ncn3[C@H]2[C@H](O)[C@H](O)[C@@H]3C[C@@H]32)cc1OC	7.79	6.48	28%		pKi (Adenosine receptor A1 [10]): 6.68
Oc1ccc(CCNc2nc(C#Cc3ccccc3)nc3c2ncn3[C@H]2[C@H](O)[C@H](O)[C@@H]3C[C@@H]32)cc1	7.34	7.12	32%	29%	
COc1cc(CCNc2nc(C#Cc3ccc(Br)s3)nc3c2ncn3[C@H]2[C@H](O)[C@H](O)[C@@H]3C[C@@H]32)ccc1O	8.49	7.59	38%	15%	pEC50 (Adenosine receptor A3 [6]): 6.16; Emax [7]: 50%; pKi (Adenosine receptor A1 [4]): 5.55; Emax [8]: 61%
O[C@@H]1[C@H](O)[C@@H]2C[C@@H]2[C@H]1n1cnc2c(NCCc3cccc(F)c3)nc(C#Cc3ccccc3)nc21	7.44	6.58	27%		pKi (Adenosine receptor A1 [10]): 5.57
O[C@@H]1[C@H](O)[C@@H]2C[C@@H]2[C@H]1n1cnc2c(N[C@H]3C[C@@H]3c3ccccc3)nc(C#Cc3ccc(Cl)s3)nc21	7.09	5.94	44%	32%	
COc1cc(CCNc2nc(C#Cc3cccc(F)c3)nc3c2ncn3[C@H]2[C@H](O)[C@H](O)[C@@H]3C[C@@H]32)ccc1O	8.33	7.14	51%	38%	
Cc1cccc(CCNc2nc(C#Cc3ccc(Cl)s3)nc3c2ncn3[C@H]2[C@H](O)[C@H](O)[C@@H]3C[C@@H]32)c1	6.97	6.17	50%	29%	
O[C@@H]1[C@H](O)[C@@H]2C[C@@H]2[C@H]1n1cnc2c(NCCc3cccc(F)c3)nc(C#Cc3ccc(Cl)s3)nc21	7.37	6.31	55%	31%	pKi (Translocator protein): 6.70
O[C@@H]1[C@H](O)[C@@H]2C[C@@H]2[C@H]1n1cnc2c(NCCc3ccc(F)c(F)c3)nc(C#Cc3ccc(Cl)s3)nc21	7.33	5.60	57%	28%	
COc1cc(CCNc2nc(C#Cc3ccc(F)c(F)c3)nc3c2ncn3[C@H]2[C@H](O)[C@H](O)[C@@H]3C[C@@H]32)ccc1O	7.89	7.12	33%		pKi (Adenosine receptor A1 [10]): 6.47
Nc1ccc(CCNc2nc(C#Cc3ccccc3)nc3c2ncn3[C@H]2[C@H](O)[C@H](O)[C@@H]3C[C@@H]32)cc1	7.85	7.22	26%	30%	
COc1cc(CCNc2nc(C#Cc3ccccc3F)nc3c2ncn3[C@H]2[C@H](O)[C@H](O)[C@@H]3C[C@@H]32)ccc1O	8.27	7.67			pKi (Adenosine receptor A1 [10]): 6.73; pKi (Adenosine receptor A2a [11]): 5.23; pKi (Adenosine receptor A1 [4]): 6.21
COc1cc(CCNc2nc(C#Cc3ccc(F)cc3)nc3c2ncn3[C@H]2[C@H](O)[C@H](O)[C@@H]3C[C@@H]32)ccc1O	8.19	7.26	51%	39%	
O[C@@H]1[C@H](O)[C@@H]2C[C@@H]2[C@H]1n1cnc2c(NCCc3cccc(Cl)c3)nc(C#Cc3ccc(Cl)s3)nc21	7.23	6.27	59%	39%	
COc1cc(CCNc2nc(C#Cc3ccc(Cl)s3)nc3c2ncn3[C@H]2[C@H](O)[C@H](O)[C@@H]3C[C@@H]32)ccc1O	8.02	7.13	38%		pKi (Adenosine receptor A1 [10]): 6.19
Oc1ccc(CCNc2nc(C#Cc3ccccc3)nc3c2ncn3[C@H]2[C@H](O)[C@H](O)[C@@H]3C[C@@H]32)cc1F	8.04	7.21	17%	44%	
